Results from patent US20070059385A1, “Safe pharmaceutical composition for treating and preventing cancer and method of use” (priority 2005, published 2007).

What was measured:
[1] = test system: tyrosine kinase (TK); assay: Tyrosine kinase (TK) assay in HL-60 leukemia cells; format: cell-based, human
Procedure: Tyrosine kinase (TK) Assay: TK was measured by a modification of the method of Braun et al. Briefly, H-60 leukemia cells were plated at a density of 5×10^5 cells in […], and divided control and treatments groups for incubation 24 hours at 37° C. with 5% CO2. The cells were collected by scraping, washed twice with phosphate-buffered saline, and resuspended at density of 10^6 cells/ml in 5 mM HEPEs buffer (pH 7.4). The cells were then resuspended in 1 ml of buffer containing 5 mM HEPES (pH 7.6), 1 mM MgCl2 and 1 mM EDTA, then placed on ice bath. The cell membrane was disrupted by ultra sound and centrifuged at 1,000×g for 10 minutes. The supernatant was ultra centrifuged at 30,000×g for 30 minutes at 4° C. The pellet was resuspended in 0.3 ml of buffer containing 25 mM HEOES, centrifuged at 12,000×g for 5 minutes. The resulting supernatant was used for TK assay. Content of protein was determined. 10 μg of protein placed in 20 mM HEPES (pH 7.6), 15 mM MgCl2, 10 mM ZnCl2 and 5% (v/v) nonidet P-40, with or without substrate [glutamic acid (GT), mg/ml]. After 5 minutes incubation at 25° C., the reaction was initiated by the addition of 25 μM [γ^32P] ATP (3 ci/mmol). After 10 minutes, the reaction was stopped by the addition of 20 mM cold ATP. 50 μl of the mixtures were spotted on glass microfiber filter discs and washed three times with cold trichloroacetic acid (TCA), contained 10 mM sodium pyrophosphate. Air dried. Radioactivity was determined by liquid scintillation spectrometry. The net TK activity was determined after correcting for endogenous TK activity.

[2] = test system: TA100; assay: Salmonella mutagenicity assay TA100
Procedure: The method for detecting mutagenicity of HHT, with the Salmonella system that detects the reversion of the bacteria from His^− to His^+, is widely used.
The bacterial tester strains used for mutagenesis testing are TA97, TA98, TA100 and TA102. Mutagenesis testing method was done as described previously ^[77-88]. In brief, TA97, TA98, TA100 and TA102 were grown in agar gel culture. The petri plats (100×15 mm style) contain 30 ml with 2% glucose. The agar mixture was agitated vigorously and immediately poured into plates of minimal agar. The cultures were incubated at 37° C. in a dark and 5% CO2 in air for 48 hours. After 48 hours the colonies in both test and controls are counted. The presence of a background lawn of bacteria on the histidine-poor soft agar plate was used as an indication that gross toxic effects were absent. Mutagenicity assays were carried out at least in triplicate.
The range of spontaneous mutation rates for the individual strains, which were considered to be acceptable, was TA97 (100-170), TA98 (20-40) and TA100 (80-150).

[3] = Metabolism (organ and blood radioactivity) of [^3H]-HHT in P388 mice; format: in vivo; details: P388 mice, [^3H]-HHT 1 mg/kg
Procedure: Animals: Adult DBA/2J male mice, 6 to 8 weeks old. All animals weighed approximately 25 g when used in experiments. Each member of which received identical dosed (i.p.) of HHT.
Tumor: P388 leukemic cells induced in mice by inoculation with L1210 or P388 leukemic cells ([…]).
After P388 induced in mice 5 days, 1 mg/kg of [^3H]-HHT (100 μC/mg) was injected to mice. Volumes were 0.01 ml/g body weight. […] The key data of HHT in metabolism process are determined counts per minute (CPM) of [^3H]-HHT in organs. CPM is determined by liquid scintillation counting (LSC). The methods of LSC combined with radioactive of [^3H]-HHT can be determined using a tracer of HHT in organs. After killed animals, organs and blood were obtained from P388 mice. Organs were weighted. 10 mg of organs were digested. 10 ml of scintillation solution (which containing […]) were added to digested solution and determined at LSC. Other processes are similar to the standard method.

COC(=O)C[C@](O)(CCCC(C)(C)O)C(=O)O[C@@H]1C(OC)=C[C@]23CCCN2CCc2cc4c(cc2[C@H]13)OCO4 [HHT, Homoharringtonine]
inhibition of HL-60 TK activity ([1]; 10^−7 M): 78.5%
inhibition of HL-60 TK activity ([1]; 10^−8 M): 12.2%
% of control activity (TK) ([1]; HL-60 leukemia cells, 10^−6 M): 0.6%
% of control activity (TK) ([1]; HL-60 leukemia cells, 10^−8 M): 87.8 ± 12%
% of control activity (TK) ([1]; Table 8, concentration not given): 21.5 ± 4.0%
Number of His^+ revertants/plate ([2]; TA100 +S, 0.1 μg/plate): 158 revertants/plate
Number of His^+ revertants/plate ([2]; TA100 +S, 1 μg/plate): 152 revertants/plate
Number of His^+ revertants/plate ([2]; TA100 +S, 10 μg/plate): 165 revertants/plate
Number of His^+ revertants/plate ([2]; TA100 +S, 100 μg/plate): 160 revertants/plate
Number of His^+ revertants/plate ([2]; TA100 −S, 0.1 μg/plate): 148 ± 12 revertants/plate
Number of His^+ revertants/plate ([2]; TA100 −S, 1 μg/plate): 140 ± 13 revertants/plate
Number of His^+ revertants/plate ([2]; TA100 −S, 10 μg/plate): 162 ± 17 revertants/plate
Number of His^+ revertants/plate ([2]; TA100 −S, 100 μg/plate): 158 ± 15 revertants/plate
CMP/mg organ, Bone ([3]; 1 hour): 500 CMP/mg organ
CMP/mg organ, Brain ([3]; 1 hour): 499 CMP/mg organ
CMP/mg organ, Contents of intestine ([3]; 1 hour): 3323 CMP/mg organ
CMP/mg organ, Contents of stomach ([3]; 1 hour): 6821 CMP/mg organ
CMP/mg organ, Heart ([3]; 1 hour): 1403 CMP/mg organ
CMP/mg organ, Intestine ([3]; 1 hour): 1638 CMP/mg organ
CMP/mg organ, Kidney ([3]; 1 hour): 6501 CMP/mg organ
CMP/mg organ, Liver ([3]; 1 hour): 4145 CMP/mg organ
CMP/mg organ, Lung ([3]; 1 hour): 2100 CMP/mg organ
CMP/mg organ, Spleen ([3]; 1 hour): 2828 CMP/mg organ
CMP/mg organ, Stomach ([3]; 1 hour): 1626 CMP/mg organ
CMP/mg organ, Bone ([3]; 3 hours): 560 CMP/mg organ
CMP/mg organ, Brain ([3]; 3 hours): 646 CMP/mg organ
CMP/mg organ, Contents of intestine ([3]; 3 hours): 7215 CMP/mg organ
CMP/mg organ, Contents of stomach ([3]; 3 hours): 84375 CMP/mg organ
CMP/mg organ, Heart ([3]; 3 hours): 1800 CMP/mg organ
CMP/mg organ, Intestine ([3]; 3 hours): 3288 CMP/mg organ
CMP/mg organ, Kidney ([3]; 3 hours): 3121 CMP/mg organ
CMP/mg organ, Liver ([3]; 3 hours): 6718 CMP/mg organ
CMP/mg organ, Lung ([3]; 3 hours): 2427 CMP/mg organ
CMP/mg organ, Spleen ([3]; 3 hours): 2426 CMP/mg organ
CMP/mg organ, Stomach ([3]; 3 hours): 2321 CMP/mg organ
CMP/mg organ, Bone ([3]; 6 hours): 505 CMP/mg organ
CMP/mg organ, Brain ([3]; 6 hours): 793 CMP/mg organ
CMP/mg organ, Contents of intestine ([3]; 6 hours): 6250 CMP/mg organ
CMP/mg organ, Contents of stomach ([3]; 6 hours): 100719 CMP/mg organ
CMP/mg organ, Heart ([3]; 6 hours): 1193 CMP/mg organ
CMP/mg organ, Intestine ([3]; 6 hours): 2475 CMP/mg organ
CMP/mg organ, Kidney ([3]; 6 hours): 3501 CMP/mg organ
CMP/mg organ, Liver ([3]; 6 hours): 4109 CMP/mg organ
CMP/mg organ, Lung ([3]; 6 hours): 1788 CMP/mg organ
CMP/mg organ, Spleen ([3]; 6 hours): 2198 CMP/mg organ
CMP/mg organ, Stomach ([3]; 6 hours): 3703 CMP/mg organ
CMP/mg organ, Bone ([3]; 24 hours): 480 CMP/mg organ
CMP/mg organ, Brain ([3]; 24 hours): 986 CMP/mg organ
CMP/mg organ, Contents of intestine ([3]; 24 hours): 5009 CMP/mg organ
CMP/mg organ, Contents of stomach ([3]; 24 hours): 117914 CMP/mg organ
CMP/mg organ, Heart ([3]; 24 hours): 893 CMP/mg organ
CMP/mg organ, Intestine ([3]; 24 hours): 1067 CMP/mg organ
CMP/mg organ, Kidney ([3]; 24 hours): 1065 CMP/mg organ
CMP/mg organ, Liver ([3]; 24 hours): 2175 CMP/mg organ
CMP/mg organ, Lung ([3]; 24 hours): 1312 CMP/mg organ
CMP/mg organ, Spleen ([3]; 24 hours): 2156 CMP/mg organ
CMP/mg organ, Stomach ([3]; 24 hours): 1823 CMP/mg organ
